Experimental data from ChEMBL document CHEMBL5046277, “Rational Design for Nitroreductase (NTR)-Responsive Proteolysis Targeting Chimeras (PROTACs) Selectively Targeting Tumor Tissues” (J Med Chem, 2022).
Calls of active or inactive are those of the source. The rule behind the calls is not given here.

Legend:
HCC827 [1] = experiment: Antiproliferative activity against human HCC827 cells assessed as reduction in cell viability measured after 72 hrs under normoxic condition by CCK-8 assay; assay type: functional, cell-based; details: HCC827, 72 h
[2] = target: Epidermal growth factor receptor (Homo sapiens) (UniProt P00533); experiment: Induction of EGFR degradation in human HCC827 cells assessed as EGFR protein level measured after 72 hrs under normoxic condition by Western blot assay; assay type: functional, cell-based
[3] = target: von Hippel-Lindau disease tumor suppressor/Epidermal growth factor receptor (Homo sapiens) (UniProt P00533+P40337); experiment: Protac activity at VHL/EGFR in human HCC827 cells assessed as induction of EGFR degradation at 100 nM pretreated for 2 hrs with VHL-L followed by compound addition; assay type: cell-based
HCC827 [4] = experiment: Antiproliferative activity against human HCC827 cells assessed as cell viability measured after 72 hrs under hypoxic condition by CCK-8 assay; assay type: functional, cell-based; details: HCC827, 72 h
HCC827 [5] = experiment: Antiproliferative activity against human HCC827 cells assessed as cell viability measured after 72 hrs in presence of NTR by CCK-8 assay; assay type: functional, cell-based; details: HCC827, 72 h
[6] = target: Epidermal growth factor receptor (Homo sapiens) (UniProt P00533); experiment: Induction of EGFR degradation in human HCC827 cells assessed as EGFR protein level measured after 72 hrs by Western blot assay; assay type: cell-based
HCC827 [7] = experiment: Antiproliferative activity against human HCC827 cells assessed as cell viability measured after 72 hrs by CCK-8 assay; assay type: functional, cell-based

Sequence of Epidermal growth factor receptor (Homo sapiens) (P00533 whole entry): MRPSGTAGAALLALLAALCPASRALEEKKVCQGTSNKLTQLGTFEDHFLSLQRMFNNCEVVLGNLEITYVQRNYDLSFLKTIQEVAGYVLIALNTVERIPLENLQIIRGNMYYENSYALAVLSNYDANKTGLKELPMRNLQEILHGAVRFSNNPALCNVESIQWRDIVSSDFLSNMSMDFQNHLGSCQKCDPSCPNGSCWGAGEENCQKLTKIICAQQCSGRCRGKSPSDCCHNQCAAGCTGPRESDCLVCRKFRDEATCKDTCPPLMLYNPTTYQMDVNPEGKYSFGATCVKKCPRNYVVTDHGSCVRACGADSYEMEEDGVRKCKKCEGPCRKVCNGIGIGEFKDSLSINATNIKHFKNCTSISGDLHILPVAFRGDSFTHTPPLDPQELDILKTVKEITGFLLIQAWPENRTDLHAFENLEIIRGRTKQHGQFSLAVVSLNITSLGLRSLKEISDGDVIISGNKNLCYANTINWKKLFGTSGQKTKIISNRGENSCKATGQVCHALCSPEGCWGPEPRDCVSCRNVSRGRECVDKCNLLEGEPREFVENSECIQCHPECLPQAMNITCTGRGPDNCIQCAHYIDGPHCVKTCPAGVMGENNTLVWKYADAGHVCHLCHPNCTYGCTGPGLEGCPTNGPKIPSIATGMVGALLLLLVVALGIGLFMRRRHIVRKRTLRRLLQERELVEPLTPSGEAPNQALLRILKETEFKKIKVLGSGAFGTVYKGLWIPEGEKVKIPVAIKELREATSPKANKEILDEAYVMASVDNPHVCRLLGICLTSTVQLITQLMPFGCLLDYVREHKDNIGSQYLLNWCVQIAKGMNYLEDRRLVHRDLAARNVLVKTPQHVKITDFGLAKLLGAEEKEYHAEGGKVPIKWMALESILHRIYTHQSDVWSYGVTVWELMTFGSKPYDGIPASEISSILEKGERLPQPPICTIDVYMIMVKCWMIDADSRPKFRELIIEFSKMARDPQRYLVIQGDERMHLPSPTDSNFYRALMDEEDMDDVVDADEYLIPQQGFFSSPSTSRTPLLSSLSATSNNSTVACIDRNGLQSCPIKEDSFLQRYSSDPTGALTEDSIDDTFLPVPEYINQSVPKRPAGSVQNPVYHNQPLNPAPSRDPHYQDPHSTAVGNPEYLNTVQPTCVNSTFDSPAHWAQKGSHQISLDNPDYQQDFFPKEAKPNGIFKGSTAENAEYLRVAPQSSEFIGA
Sequence of von Hippel-Lindau disease tumor suppressor/Epidermal growth factor receptor (Homo sapiens) (P00533 25-1210 limits assumed): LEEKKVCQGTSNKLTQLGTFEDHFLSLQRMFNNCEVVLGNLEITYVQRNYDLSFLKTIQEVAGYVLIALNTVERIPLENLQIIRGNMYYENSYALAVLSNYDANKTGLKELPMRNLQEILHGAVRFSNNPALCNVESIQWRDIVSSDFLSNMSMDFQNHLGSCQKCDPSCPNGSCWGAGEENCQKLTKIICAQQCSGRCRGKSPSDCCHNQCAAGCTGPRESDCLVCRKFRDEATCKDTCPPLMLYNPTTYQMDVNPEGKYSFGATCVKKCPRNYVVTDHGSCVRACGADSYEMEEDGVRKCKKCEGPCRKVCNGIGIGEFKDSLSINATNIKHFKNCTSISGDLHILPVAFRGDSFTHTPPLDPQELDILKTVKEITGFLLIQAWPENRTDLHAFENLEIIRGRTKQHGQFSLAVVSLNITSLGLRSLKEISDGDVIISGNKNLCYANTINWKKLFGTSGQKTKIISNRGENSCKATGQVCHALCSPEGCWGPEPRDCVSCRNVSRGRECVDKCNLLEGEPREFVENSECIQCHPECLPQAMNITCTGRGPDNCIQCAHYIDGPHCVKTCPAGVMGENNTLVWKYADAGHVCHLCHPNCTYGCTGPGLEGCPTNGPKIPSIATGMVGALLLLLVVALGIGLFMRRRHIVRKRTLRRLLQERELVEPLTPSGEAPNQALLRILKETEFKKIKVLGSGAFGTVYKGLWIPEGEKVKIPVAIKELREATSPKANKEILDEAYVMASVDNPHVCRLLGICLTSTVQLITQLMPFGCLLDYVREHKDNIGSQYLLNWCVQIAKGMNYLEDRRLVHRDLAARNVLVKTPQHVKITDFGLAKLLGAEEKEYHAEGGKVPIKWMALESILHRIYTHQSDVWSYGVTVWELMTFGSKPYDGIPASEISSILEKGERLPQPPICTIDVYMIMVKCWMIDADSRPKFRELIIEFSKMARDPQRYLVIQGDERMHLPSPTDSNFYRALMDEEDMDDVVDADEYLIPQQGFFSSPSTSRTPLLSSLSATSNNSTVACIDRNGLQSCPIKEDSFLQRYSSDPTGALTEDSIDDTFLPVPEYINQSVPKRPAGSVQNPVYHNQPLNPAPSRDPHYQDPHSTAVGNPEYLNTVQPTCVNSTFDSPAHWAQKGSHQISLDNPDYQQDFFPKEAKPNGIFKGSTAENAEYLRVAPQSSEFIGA
Sequence of von Hippel-Lindau disease tumor suppressor/Epidermal growth factor receptor (Homo sapiens) (P40337 whole entry partner): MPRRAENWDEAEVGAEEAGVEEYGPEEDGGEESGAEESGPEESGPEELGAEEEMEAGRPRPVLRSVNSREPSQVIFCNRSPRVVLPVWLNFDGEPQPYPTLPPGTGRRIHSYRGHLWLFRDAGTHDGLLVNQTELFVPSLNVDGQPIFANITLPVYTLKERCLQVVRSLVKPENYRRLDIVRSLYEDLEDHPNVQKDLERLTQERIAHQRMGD

Structure (SMILES)	IC50 (HCC827 [1]) [nM]	Activity [2]	Activity [3]	IC50 (HCC827 [4]) [nM]	IC50 (HCC827 [5]) [nM]	Activity [6]	Activity (HCC827 [7])
Cc1ncsc1-c1ccc(CNC(=O)[C@@H]2C[C@@H](O)CN2C(=O)[C@@H](NC(=O)COCCOCCn2cc(CCCCCOc3cc4ncnc(Nc5ccc(F)c(Cl)c5)c4cc3NC(=O)/C=C/CN3CCCCC3)nn2)C(C)(C)C)cc1	4	Dose-Dependent Effect	Active	18.7	6		
Cc1ncsc1-c1ccc(CNC(=O)[C@@H]2C[C@@H](O)CN2C(=O)[C@@H](NC(=O)COCCOCCOCCn2cc(COc3cc4ncnc(Nc5ccc(F)c(Cl)c5)c4cc3NC(=O)/C=C/CN3CCCCC3)nn2)C(C)(C)C)cc1		inactive				inactive	inactive
